Laboratory results from PubChem BioAssay (NCI).
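Compound exposure: 48 hours, 5 concentrations, 96-well plates. The concentration for 50% growth inhibition is given as GI50. TGI marks complete inhibition of growth.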

Columns and labels:
Assay in all cases: growth of human tumour cells (NCI), 48 h
[1] = test system: 786-0 renal
[2] = test system: A498 renal
[3] = test system: A549 NSCLC
[4] = test system: ACHN renal
[5] = test system: BT-549 breast
[6] = test system: CAKI-1 renal
[7] = test system: CCRF-CEM leukemia
[8] = test system: COLO 205 colon
[9] = test system: DU-145 prostate
[10] = test system: EKVX NSCLC
[11] = test system: HCC-2998 colon
[12] = test system: HCT-116 colon
[13] = test system: HCT-15 colon
[14] = test system: HL-60(TB) leukemia
[15] = test system: HOP-62 NSCLC
[16] = test system: HOP-92 NSCLC
[17] = test system: HS 578T breast
[18] = test system: HT29 colon
[19] = test system: IGROV1 ovarian
[20] = test system: K-562 leukemia
[21] = test system: KM12 colon
[22] = test system: LOX IMVI melanoma
[23] = test system: M14 melanoma
[24] = test system: MALME-3M melanoma
[25] = test system: MCF7 breast
[26] = test system: MDA-MB-231 breast
[27] = test system: MDA-MB-435
[28] = test system: MDA-MB-468 breast
[29] = test system: MOLT-4 leukemia
[30] = test system: NCI-H226 lung
[31] = test system: NCI-H23 lung
[32] = test system: NCI-H460 lung
[33] = test system: NCI-H522 lung
[34] = test system: NCI/ADR-RES ovarian
[35] = test system: OVCAR-3 ovarian
[36] = test system: OVCAR-4 ovarian
[37] = test system: OVCAR-5 ovarian
[38] = test system: OVCAR-8 ovarian
[39] = test system: PC-3 prostate
[40] = test system: RPMI-8226 leukemia
[41] = test system: RXF 393 renal
[42] = test system: SF-268 CNS
[43] = test system: SF-295 CNS
[44] = test system: SF-539 CNS
[45] = test system: SK-MEL-2 melanoma
[46] = test system: SK-MEL-28 melanoma
[47] = test system: SK-MEL-5 melanoma
[48] = test system: SK-OV-3 ovarian
[49] = test system: SN12C renal
[50] = test system: SNB-19 CNS
[51] = test system: SNB-75 CNS
[52] = test system: SR leukemia
[53] = test system: SW-620 colon
[54] = test system: T-47D breast
[55] = test system: TK-10 renal
[56] = test system: U251 CNS
[57] = test system: UACC-257 melanoma
[58] = test system: UACC-62 melanoma
[59] = test system: UO-31 renal

Work on `COc1ccc(OC)c(-c2cc(-c3c[nH]c4ccccc34)nc(N)c2C#N)c1` yielded a GI50 [1] of 2.61 µM, a TGI [1] of 9.13 µM and a GI50 [2] of 8.86 µM. For the same compound, the TGI [2] was 21.9 µM, the GI50 [3] was 3.74 µM and the TGI [3] was 27.5 µM. For the same compound, the GI50 [4] was 4.92 µM, the TGI [4] was 22.7 µM and the GI50 [5] was 1.96 µM. It also gave a TGI [5] of 12.3 µM, a GI50 [6] of 1.51 µM and a TGI [6] of 20.6 µM. It also gave a GI50 [7] of 2.4 µM, a TGI [7] of 28.8 µM and a GI50 [8] of 2.81 µM. For the same compound, the TGI [8] was 10.7 µM, the GI50 [9] was 8.2 µM and the TGI [9] was 27.5 µM. The GI50 [10] was 1.57 µM, the TGI [10] was 16.4 µM and the GI50 [11] was 2.98 µM. It also gave a TGI [11] of 13.9 µM, a GI50 [12] of 2.42 µM and a TGI [12] of 13.2 µM. For the same compound, the GI50 [13] was 0.903 µM, the TGI [13] was 13.4 µM and the GI50 [14] was 2.42 µM. For the same compound, the TGI [14] was 25.4 µM, the GI50 [15] was 2.88 µM and the TGI [15] was 16.2 µM. It also gave a GI50 [16] of 1.3 µM, a TGI [16] of 4.38 µM and a GI50 [17] of 2.17 µM. It also gave a TGI [17] of 8.13 µM, a GI50 [18] of 2.74 µM and a TGI [18] of 12.3 µM. It also gave a GI50 [19] of 5.59 µM, a TGI [19] of 23.1 µM and a GI50 [20] of 0.881 µM. The TGI [20] was 82.3 µM, the GI50 [21] was 2.71 µM and the TGI [21] was 13.6 µM. It also gave a GI50 [22] of 2.95 µM, a TGI [22] of 12.8 µM and a GI50 [23] of 1.6 µM. The TGI [23] was 11.6 µM, the GI50 [24] was 3.25 µM and the TGI [24] was 16.7 µM. It also gave a GI50 [25] of 0.135 µM, a TGI [25] of 12.5 µM and a GI50 [26] of 2.06 µM. For the same compound, the TGI [26] was 12.6 µM, the GI50 [27] was 0.39 µM and the TGI [27] was 1.86 µM. The GI50 [28] was 0.0659 µM, the TGI [28] was 0.369 µM and the GI50 [29] was 3.84 µM. For the same compound, the TGI [29] was 27 µM, the GI50 [30] was 5.81 µM and the TGI [30] was 20.5 µM. It also gave a GI50 [31] of 2.82 µM, a TGI [31] of 15.2 µM and a GI50 [32] of 1.58 µM. The TGI [32] was 13.2 µM, the GI50 [33] was 0.736 µM and the TGI [33] was 7.28 µM. For the same compound, the GI50 [34] was 1.22 µM, the TGI [34] was 5.02 µM and the GI50 [35] was 2.94 µM. The TGI [35] was 14.2 µM, the GI50 [36] was 5.42 µM and the TGI [36] was 25.3 µM. The GI50 [37] was 5.94 µM, the TGI [37] was 21.8 µM and the GI50 [38] was 4.94 µM. It also gave a TGI [38] of 18.2 µM, a GI50 [39] of 1.93 µM and a TGI [39] of 15.5 µM. The GI50 [40] was 1.95 µM, the TGI [40] was greater than 100 µM and the GI50 [41] was 1.77 µM. It also gave a TGI [41] of 10.4 µM, a GI50 [42] of 3.63 µM and a TGI [42] of 19 µM. The GI50 [43] was 3.43 µM, the TGI [43] was 13 µM and the GI50 [44] was 2.9 µM. It also gave a TGI [44] of 11.7 µM, a GI50 [45] of 2.39 µM and a TGI [45] of 6.58 µM. It also gave a GI50 [46] of 3.46 µM, a TGI [46] of 17.8 µM and a GI50 [47] of 0.804 µM. The TGI [47] was 4.18 µM, the GI50 [48] was 3.63 µM and the TGI [48] was 18 µM. For the same compound, the GI50 [49] was 5.06 µM, the TGI [49] was 17.7 µM and the GI50 [50] was 5.47 µM. The TGI [50] was 19.3 µM, the GI50 [51] was 1.3 µM and the TGI [51] was 5.14 µM. The GI50 [52] was 0.539 µM, the TGI [52] was 21.2 µM and the GI50 [53] was 2.9 µM. The TGI [53] was 15.6 µM, the GI50 [54] was 2.18 µM and the TGI [54] was 12.6 µM. The GI50 [55] was 11.1 µM, the TGI [55] was 33.7 µM and the GI50 [56] was 3.2 µM. It also gave a TGI [56] of 13.8 µM, a GI50 [57] of 9.47 µM and a TGI [57] of 21.5 µM. The GI50 [58] was 2.67 µM, the TGI [58] was 13.5 µM and the GI50 [59] was 3.9 µM. The TGI [59] was 18.4 µM.
`CC(C)(C)c1ccc(NCc2cn(-c3ccc(C(=O)O)cc3)nc2-c2ccc(C#N)cc2)cc1` showed a GI50 [1] of 12.9 µM, a TGI [1] of 27.6 µM and a GI50 [2] of 11.1 µM. For the same compound, the TGI [2] was 23.4 µM, the GI50 [3] was 3.77 µM and the TGI [3] was 17.1 µM. The GI50 [4] was 6.12 µM, the TGI [4] was 60.1 µM and the GI50 [5] was 6.77 µM. The TGI [5] was 22.4 µM, the GI50 [6] was 8.23 µM and the TGI [6] was 26.3 µM. It also gave a GI50 [7] of 3.73 µM, a TGI [7] of 36.8 µM and a GI50 [8] of 3.18 µM. The TGI [8] was 11.8 µM, the GI50 [9] was 12.4 µM and the TGI [9] was 38.2 µM. For the same compound, the GI50 [10] was 3.07 µM, the TGI [10] was 12.5 µM and the GI50 [11] was 3.31 µM. For the same compound, the TGI [11] was 11.7 µM, the GI50 [12] was 4.45 µM and the TGI [12] was 17.3 µM. It also gave a GI50 [13] of 3.36 µM, a TGI [13] of 12.6 µM and a GI50 [14] of 2.83 µM. The TGI [14] was 14.1 µM, the GI50 [15] was 5.28 µM and the TGI [15] was 20.8 µM. The GI50 [16] was 8.12 µM, the TGI [16] was 23.3 µM and the GI50 [17] was 3.54 µM. It also gave a TGI [17] of 27.2 µM, a GI50 [18] of 5.75 µM and a TGI [18] of 21.4 µM. For the same compound, the GI50 [19] was 10.7 µM, the TGI [19] was 25.6 µM and the GI50 [20] was 3.48 µM. For the same compound, the TGI [20] was 76.9 µM, the GI50 [21] was 3.45 µM and the TGI [21] was 13 µM. It also gave a GI50 [22] of 7.3 µM, a TGI [22] of 20.3 µM and a GI50 [23] of 7.28 µM. For the same compound, the TGI [23] was 25.9 µM, the GI50 [24] was 11.3 µM and the TGI [24] was 28.3 µM. The GI50 [25] was 3.43 µM, the TGI [25] was 21.6 µM and the GI50 [26] was 12.2 µM. The TGI [26] was 27.5 µM, the GI50 [27] was 6.31 µM and the TGI [27] was 32.7 µM. It also gave a GI50 [28] of 10.1 µM, a TGI [28] of 34.3 µM and a GI50 [29] of 4.34 µM. For the same compound, the TGI [29] was greater than 100 µM, the GI50 [30] was 10.8 µM and the TGI [30] was 35.6 µM. The GI50 [31] was 11.8 µM, the TGI [31] was 27.4 µM and the GI50 [32] was 4.41 µM. The TGI [32] was 17 µM, the GI50 [33] was 10.1 µM and the TGI [33] was 27.8 µM. The GI50 [34] was 5.81 µM, the TGI [34] was 23.4 µM and the GI50 [35] was 6.86 µM. The TGI [35] was 21.9 µM, the GI50 [36] was 6.23 µM and the TGI [36] was greater than 100 µM. For the same compound, the GI50 [37] was 14.2 µM, the TGI [37] was 28.7 µM and the GI50 [38] was 4.66 µM. For the same compound, the TGI [38] was 17.4 µM, the GI50 [39] was 5.74 µM and the TGI [39] was 31.1 µM. It also gave a GI50 [40] of 3.91 µM, a TGI [40] of 25.2 µM and a GI50 [41] of 6.94 µM. The TGI [41] was 21.4 µM, the GI50 [42] was 7.21 µM and the TGI [42] was 26 µM. The GI50 [43] was 5.35 µM, the TGI [43] was 20.7 µM and the GI50 [44] was 5.96 µM. The TGI [44] was 19.7 µM, the GI50 [45] was 4.37 µM and the TGI [45] was 18.3 µM. It also gave a GI50 [46] of 4.3 µM, a TGI [46] of 17.8 µM and a GI50 [47] of 3.58 µM. For the same compound, the TGI [47] was 13.5 µM, the GI50 [48] was 16.1 µM and the TGI [48] was 34.5 µM. The GI50 [49] was 7.81 µM, the TGI [49] was 20.4 µM and the GI50 [50] was 4.44 µM. For the same compound, the TGI [50] was 16.8 µM, the GI50 [51] was 6.97 µM and the TGI [51] was 21.3 µM. The GI50 [52] was 3.03 µM, the TGI [52] was 20.8 µM and the GI50 [53] was 7.65 µM. It also gave a TGI [53] of 25.1 µM, a GI50 [54] of 4.57 µM and a TGI [54] greater than 100 µM. It also gave a GI50 [55] of 13.7 µM, a TGI [55] of 31 µM and a GI50 [56] of 4.64 µM. The TGI [56] was 17.5 µM, the GI50 [57] was 8.15 µM and the TGI [57] was 42.8 µM. The GI50 [58] was 5.48 µM, the TGI [58] was 19 µM and the GI50 [59] was 6.5 µM. The TGI [59] was 21.1 µM.
